Patent US20110045100A1, “Antimalarial Quinolines and Methods of Use Thereof” (GEORGETOWN UNIVERSITY, priority 2008, published 2011)
Like-named read-outs stand apart in the source and are kept apart here.

Assays:
[1] = tested on: Dd2 (chloroquine resistant strain of P. falciparum); assay: SYBR Green I antiplasmodial assay, strain Dd2; format: cell-based, Plasmodium falciparum
Source text: (§1) Bennett T. N.; Paguio, M.; Gligorijevic, B.; Seudieu, C.; Kosar, A. D.; Davidson, E.; Roepe, P. D. Novel, rapid, and inexpensive cell-based quantification of antimalarial drug efficacy. Antimicrob. Agents Chemother. 2004, 48, 1807-1810; Smilkstein, M.; Sriwilaijaroen, N.; Kelly, J. X.; Wilairat, P.; Riscoe, M. Simple and inexpensive fluorescence-based technique for high-throughput antimalarial drug screening. Antimicrob. Agents Chemother. 2004, 48, 1803-1806; and Johnson, J. D.; Dennull, R. A.; Gerena, L.; Lopez-Sanchez, M.; Roncal, N. E.; Waters, N.C. Assessment and continued validation of the malaria SYBR green I-based fluorescence assay for use in malaria drug screening. Antimicrob. Agents Chemother. 2007, 51, 1926-1933. […] Drake, N. L.; Creech, H. J.; Garman, J. A.; Haywood, S. T.; Peck, R. M.; van Hook, J. O.; Walton, E. Synthetic antimalrials. The preparation of certain 4-aminoquinolines. J. Am. Chem. Soc. […] Trans. R. Soc. Trop. Med. Hyg. […] J. Parasitol. 1983, 69, 97-105. The selectivity index provides a quantitative measure of the antimalarial activity against CQR strains relative to that against sensitive strains and thus indicates promising drug discovery leads. […] This can be combined with the introduction of a third basic amino function which should further favor accumulation of the drug within the acidic food vacuole of the parasite.
The antiplasmodial activity of these compounds was measured versus a CQS (HB3) and a CQR (Dd2) strain using a standardized, inexpensive assay based on SYBR Green I intercalation. Bennett T. N.; Paguio, M.; Gligorijevic, B.; Seudieu, C.; Kosar, A. D.; Davidson, E.; Roepe, P. D. Antimicrob. Agents Chemother. 2004, 48, 1807-1810; Smilkstein, M.; Sriwilaijaroen, N.; Kelly, J. X.; Wilairat, P.; Riscoe, M. Antimicrob. Agents Chemother. 2004, 48, 1803-1806; and Johnson, J. D.; Dennull, R. A.; Gerena, L.; Lopez-Sanchez, M.; Roncal, N. E.; Waters, N.C. Antimicrob. Agents Chemother. 2007, 51, 1926-1933. […] De, D.; Krogstad, F. M.; Cogswell, F. B.; Krogstad, D. J. Am. J. Trop. Med. Hyg. 1996, 55, 579-583. […] The basic tertiary amino function in the side chain is commonly believed to be crucial for the accumulation of the drug within the acidic food DV.
(§2) Drug activities were assessed and IC50 were quantified essentially as described previously. Delarue, S.; Girault, S.; Maes, L.; Debreu-Fontaine, M. A.; Labaeid, M.; Grellier, P.; Sergheraert, C. Synthesis and in vitro and in vivo antimalarial activity of new 4-anilinoquinolines. J. Med. Chem. 2001, 44, 2827-2833; and O'Neill, P. M.; Willock, D. J.; Hawley, S. R.; Bray, P. G.; Storr, R. C.; Ward, S. A.; Park, B. K. Synthesis, antimalarial activity, and molecular modeling of tebuquine analogues. J. Med. Chem. 1997, 40, 437-448. The aminoquinolines were diluted using complete media under sterile conditions and plated in a 96 well plate format. Sorbitol synchronized cultures were utilized with >95% of the parasites at the ring stage. Cultures were diluted to give a working stock of 0.5% parasitemia and 2% hematocrit (final hematocrit 1% & 0.5% Parasitemia). The plates were incubated for 72 h at 37° C. After 72 h, 50 μL of 10×SYBR green I dye was added to each well, and the plate was incubated for 1 h at 37° C. Fluorescence was measured at 530 nm (490 nm excitation) using a spectra geminiEM plate reader. Data analysis was performed using sigma plot 9.0 software after downloading data in Excel format.

[2] = tested on: FCB (CQR strain of P. falciparum); assay: SYBR Green I antiplasmodial assay, strain FCB; format: cell-based, Plasmodium falciparum; details: Plasmodium falciparum, read-out: IC50 for FCB
Source text: as §1, §2

monomeric heme = assay: Heme affinity measurement, monomeric heme; format: binding; details: acidic 40% DMSO
Procedure: To test whether binding to Hz precursors is also altered for the 4S and 4O derivatives, binding constants were measured as previously described for both μ-oxo dimeric and monomeric heme (FIG. 25). […] J. Am. Chem. Soc. 1988, 110, 4391-4395; Egan, T. J.; Mavuso, W. W.; Ross, D. C.; Marques, H. M. Thermodynamic factors controlling the interaction of quinoline antimalarial drugs with ferriprotoporphyrin IX. J. Inorg. Biochem. 1997, 68, 137-145; and Egan, T. J.; Ncokazi, K. K. Effects of solvent composition and ionic strength on the interaction of quinoline antimalarials with ferriprotoporphyrin IX. J. Inorg. Biochem. 2004, 98, 144-152. Due to the instability of monomeric heme in aqueous solution, the affinity to monomer measured by conventional absorbance experiments can only be estimated using 40% DMSO in water as solvent. Egan, T. J.; Ncokazi, K. K. Effects of solvent composition and ionic strength on the interaction of quinoline antimalarials with ferriprotoporphyrin IX. J. Inorg. Biochem. 2004, 98, 144-152. At appropriately acidic solution pH (≦5.0) FPIX heme is primarily monomeric, whereas at pH 7, appreciable dimer is formed. As shown (FIG. 25), CQ and compounds 88, 93, and 98 all have poor affinity for monomeric heme in acidic 40% DMSO. To further test if CQ interacts with monomeric heme, T1 measurements of the CQ protons were made with samples containing 10 mM CQ and 2 mM hemin chloride in 40% DMSO at pH 5.0. Although the lines are broadened in this solution due to paramagnetic susceptibility, the measured T1's indicate only weak paramagnetic relaxation. For example, the measured T1 for CQ proton 1 in this sample is 0.70 s, whereas at pH 7.0 the T1 for the same proton is 0.039 s.
To measure affinity for monomeric heme, 1.2 mM stock solutions of hemin (sodium salt from Sigma-Aldrich) were prepared in DMSO and stored as […] aliquots. 4.8 μM working solutions were prepared in 40% DMSO/phosphate buffer (fresh stocks prepared daily). Stock solutions of CQ and CQ analogues (diphosphate or dihydrochloride salts) were prepared in 40% DMSO/phosphate buffer and used for the titration experiments (all drugs dilutions were prepared in the same buffer).
1.5 mL cuvettes containing freshly prepared samples of 4.8 μM heme were titrated with increasing concentrations (0-50 μM) of drug. Following each addition, the sample was mixed and heme absorbance then recorded at 402 nm. Control experiments were performed by titrating 4.8 μM heme with similar volumes of solvent and no drug present. […] The absorbance peak analysis was done using Microsoft excel and Ka were extracted from the ΔAbs402 plots via Scatchard analysis using Microsoft Excel and Sigma plot 9.0.1 software.

[3] = tested on: HB3 (chloroquine sensitive strain of P. falciparum); assay: SYBR Green I antiplasmodial assay, strain HB3; format: cell-based, Plasmodium falciparum; details: CQS strain HB3; read-out: IC50 against HB3
Source text: Bennett T. N.; Paguio, M.; Gligorijevic, B.; Seudieu, C.; Kosar, A. D.; Davidson, E.; Roepe, P. D. Novel, rapid, and inexpensive cell-based quantification of antimalarial drug efficacy. Antimicrob. Agents Chemother. 2004, 48, 1807-1810; Smilkstein, M.; Sriwilaijaroen, N.; Kelly, J. X.; Wilairat, P.; Riscoe, M. Simple and inexpensive fluorescence-based technique for high-throughput antimalarial drug screening. Antimicrob. Agents Chemother. 2004, 48, 1803-1806; and Johnson, J. D.; Dennull, R. A.; Gerena, L.; Lopez-Sanchez, M.; Roncal, N. E.; Waters, N.C. Assessment and continued validation of the malaria SYBR green I-based fluorescence assay for use in malaria drug screening. Antimicrob. Agents Chemother. 2007, 51, 1926-1933. […] The selectivity index provides a quantitative measure of the antimalarial activity against CQR strains relative to that against sensitive strains and thus indicates promising drug discovery leads. […]
The antiplasmodial activity of these compounds was measured versus a CQS (HB3) and a CQR (Dd2) strain using a standardized, inexpensive assay based on SYBR Green I intercalation. […]
Drug activities were assessed and IC50 were quantified essentially as described previously. […] Fluorescence was measured at 530 nm (490 nm excitation) using a spectra geminiEM plate reader. […]

μ-oxo dimeric heme = assay: Heme affinity measurement, μ-oxo dimeric heme; format: binding; details: aqueous solution
Procedure: 1.5 mL cuvettes containing freshly prepared samples of 4.8 μM heme were titrated with increasing concentrations (0-50 μM) of drug. Following each addition, the sample was mixed and heme absorbance then recorded at 402 nm. Control experiments were performed by titrating 4.8 μM heme with similar volumes of solvent and no drug present. To measure affinity for μ-oxo dimeric heme, the procedure was similar except hemin was first converted to dimeric form in mild alkaline solution, followed by titration to pH 7.5 using Hepes buffer. The absorbance peak analysis was done using Microsoft excel and Ka were extracted from the ΔAbs402 plots via Scatchard analysis using Microsoft Excel and Sigma plot 9.0.1 software.

hemozoin (Hz) formation = assay: Quantification of in vitro Hz formation inhibition; format: biochemical
Procedure: A stock solution of 5 mM hemin (Fluka) in 0.1M NaOH was prepared and stored as small aliquots at -20° C. Fresh aliquots were thawed daily to room temperature before use. Lecithin stock solutions were prepared by dissolving in distilled water to 10 mg/ml and similarly stored. 0.5 M propionate was used to buffer experiments in the pH range 5.2-5.6. The assay mixture (1 mL volumes) contained: 200 μL lecithin solution ([…] final) 20 μL hematin (100 μM final concentration) 20 μ[…] propionate buffer (X) μL drug (dependant on the concentration required 0-1000 μM). The addition sequence involved first adding the lecithin followed by heme, HCl, propionate buffer and finally the drug. Each sample was prepared in triplicate. Following addition of the reagents the samples were incubated at 37° C. with constant shaking for 18 h. After 18 h the assay was stopped by spinning the samples at 13,200 rpm for 10 minutes followed by carefully aspirating off the supernatant. The pellet was then resuspended in 50 mM bicarbonate buffer pH 9.0 (1 mL) and gently shaken at room temperature for 30 minutes to dissolve uncrystallized heme. The samples were then centrifuged as above and the supernatant removed. […] The samples were then dissolved in 0.1M NaOH to solubilize β-hematin to free heme and β-hematin formed was then quantified via heme absorbance at 402 nm. Calibration curves were prepared by titrating increasing amounts of heme in the same solvent vs. absorbance at 402 nm.

[4] = pKa determination by acid/base titration; format: physicochemical; details: distilled water; measured; read-out: quinolyl N pKa
Procedure: SPARC pKa calculator is an online tool developed at the University of Georgia by S. W. Karickhoff, L. A. Carreira and S. H. Hilal. Experimental pKa were determined using an Accumet AB15 pH meter and a calomel electrode. 10 mM solutions of the drugs (as dibasic salts) were made in distilled H2O and titrated at room temperature (23.0±2.0° C.) using 0.1 M NaOH. Titration plots were generated and pKa's extracted via inflection points from the second derivative plots; (Δ^2pH/ΔV^2) vs. V, where V represents the volume of the titrant added and ΔV is the volume increment.

[5] = tested on: CQS (HB3, GCO3) and CQR (Dd2, FCB) strains of P. falciparum; assay: SYBR Green I antiplasmodial assay, several CQS and CQR strains; format: cell-based, Plasmodium falciparum
Source text: as §1
Bennett T. N.; Paguio, M.; Gligorijevic, B.; Seudieu, C.; Kosar, A. D.; Davidson, E.; Roepe, P. D. Novel, rapid, and inexpensive cell-based quantification of antimalarial drug efficacy. Antimicrob. Agents Chemother. 2004, 48, 1807-1810; Smilkstein, M.; Sriwilaijaroen, N.; Kelly, J. X.; Wilairat, P.; Riscoe, M. Simple and inexpensive fluorescence-based technique for high-throughput antimalarial drug screening. Antimicrob. Agents Chemother. 2004, 48, 1803-1806; and Johnson, J. D.; Dennull, R. A.; Gerena, L.; Lopez-Sanchez, M.; Roncal, N. E.; Waters, N.C. Assessment and continued validation of the malaria SYBR green I-based fluorescence assay for use in malaria drug screening. Antimicrob. Agents Chemother. 2007, 51, 1926-1933.
Drug activities were assessed and IC50 were quantified essentially as described previously. Delarue, S.; Girault, S.; Maes, L.; Debreu-Fontaine, M. A.; Labaeid, M.; Grellier, P.; Sergheraert, C. Synthesis and in vitro and in vivo antimalarial activity of new 4-anilinoquinolines. J. Med. Chem. 2001, 44, 2827-2833; and O'Neill, P. M.; Willock, D. J.; Hawley, S. R.; Bray, P. G.; Storr, R. C.; Ward, S. A.; Park, B. K. Synthesis, antimalarial activity, and molecular modeling of tebuquine analogues. J. Med. Chem. 1997, 40, 437-448.

CCN(CC)CCCC(C)Nc1ccnc2cc(Cl)ccc12 (stereo not drawn) [CQ, chloroquine, reference compound]
IC50 ([1]; Plasmodium falciparum, DD2, read-out: IC50 against Dd2): 140 nM | IC50 [2]: 170 nM | affinity for monomeric heme (monomeric heme): poor affinity

CCN(CCNc1ccnc2cc(Cl)ccc12)CCNS(=O)(=O)c1cccc2c(N(C)C)cccc12 [compound 23]
IC50 [3]: 17.5 nM | IC50 ([1]; CQR strain Dd2, read-out: IC50 against Dd2): 22.7 nM | activity against the CQ resistant strain Dd2 in comparison with CQ ([1]; compared with CQ): significantly more potent

CCN(CC)CCCCNc1ccnc2cc(Cl)ccc12 [compound 88, N-(7-Chloro-4-quinolyl)-N′,N′-diethyl-1,4-diaminobutane]
affinity for monomeric heme (monomeric heme): poor affinity | affinity (association constant Ka) vs. μ-oxo dimer (μ-oxo dimeric heme): quite similar

CCN(CC)CCCCSc1ccnc2cc(Cl)ccc12 [compound 98, S-(7-Chloro-4-quinolyl)-4-(N,N-diethylamino)butanethiol]
affinity for monomeric heme (monomeric heme): poor affinity | affinity (association constant Ka) vs. μ-oxo dimer (μ-oxo dimeric heme): quite similar | ability to inhibit Hz formation vs. that measured for CQ and 8 (hemozoin (Hz) formation; FIG. 26): significantly lower | pKa [4]: 4.1

CCN(CC)CCCC(CCCN(CC)CC)Oc1ccnc2cc(Cl)ccc12 [compound 102, 7-Chloro-4-(1′,7′-bis(diethylamino)-4′-heptoxy)quinoline]
activity vs. both CQR and CQS strains relative to 93 ([5]; FIG. 23): improved activity | fold lower IC50 relative to 98 ([5]; strains Dd2 and FCB): 10 fold | inhibition of Hz formation relative to monobasic 4O derivative 13 (hemozoin (Hz) formation): more potent inhibitor of Hz formation
